Like-named read-outs stand apart in the source and are kept apart here.
How the values were obtained:
[1] = set-up: species or system patients; settings: human, in vivo; for burden estimate from dry mouth / overall burden estimate: 85 days
From the text: The systems and methods of the present invention are now described with reference to specific examples of clinical trials and the adverse event data generated in connection therewith, and stored in a database. […] 2015]. DOI: 10.1177/1756287215589250) with a β3 adrenergic receptor agonist and an anti-muscarinic agent. General names for each drug treatment are used herein.
First described is the data analysis involved with implementation of the invention. More particularly, the application of the methodology involves the use of a clinical study database with individual data entries for TEAEs per patient per day. The presence of TEAEs may be plotted against the study day, such that if a patient reported a TEAE from Days 3 to 5, this TEAE was considered present on Days 3, 4 and 5. Also, if an end date was not present in the database, or a TEAE was ongoing, the last study day of the patient was taken as the end day of the TEAE. […] The addition of coloring that corresponds with TEAE severity allows easy discrimination of TEAEs of differing severity in the graph.
In order to visually represent the safety/TEAE burden experienced by a patient, varied weighting may be applied to TEAE severity in each arm in a consistent manner. The graph may, therefore, display the number of weighted TEAEs per day. For purposes of example, in the graphs described herein, TEAEs that were mild, moderate, severe, life threatening/disabling and related to death were weighted to represent 1×, 2×, 3×, 4× and 5×TEAEs per event per day, respectively. Further, the investigator may indicate the seriousness of the TEAE.
An area under the curve (AUC) analysis can be performed in conjunction with the burden of therapy methodology to quantitatively compare potential differences in mean events per day between study arms. This can be performed in conjunction with weighting of events if required. An AUC analysis may be useful in studies that have a similar presence of events in each arm, as an estimate of the mean weighted events per day for each arm can be compared using statistical tools.
The AUC for each individual subject can also be calculated. The AUC represents the total burden that an individual subject experienced during the trial. The AUC is the sum of the burden, for all burdens of an individual subject. Thus, the AUC of subject i is burdeni=Σj=1^t^i burdenij, where ti is the total number of study days of subject i.
The AUC can be used in an analysis of covariance (ANCOVA) as a response variable and the impact of different covariates and factors on the AUC can be investigated. The obvious factor is treatment, but one can include medication history, age, gender or BMI as […] in the ANCOVA analysis.
To analyze the profiles with an ANCOVA, the AUC for dry mouth of each subject was derived. The AUC was then used as the dependent variable in the model. […] It is likely that a negative past experience with anti-muscarinics could influence the recording of a specific adverse event like dry-mouth. In the statistical (ANCOVA) model, prior anti-muscarinics dissatisfaction was added next to treatment as explanatory variable. […] Prior anti-muscarinic dissatisfaction had also a low p-value (p=0.007), meaning that subjects with a negative experience using anti muscarinics also reported more dry mouths. In this study, dry mouth was reported by 29 patients (3.1%) in the adrenergic agonist group and 54 patients (5.8%) in the antimuscarinic group (Batista et al., 2015). An analysis of patients who reported dry mouth was performed to investigate whether there was a difference between arms and approximately 1.5-2.0% of patients reported dry mouth in the antimuscarinic group from Days 17-85 (FIGS. 3B and 4B).

[2] = cited from earlier work
[3] = overactive bladder study, whole study

Structure (SMILES)	patients reporting dry mouth per day [1]	difference in the proportion of patients with TEAEs ([1]; 10 day)	difference in the proportion of patients with TEAEs ([1]; 85 day)	burden estimate from dry mouth [1]	overall burden estimate [1]	number of patients reporting dry mouth ([2]; human, in vivo)	patients reporting dry mouth (%) ([2]; human, in vivo)	patients with TEAEs (%) [2, 3]	total number of patients with TEAEs [2, 3]
O=C(O[C@H]1CN2CCC1CC2)N1CCc2ccccc2[C@@H]1c1ccccc1 [antimuscarinic agent, solifenacin]	1.5-2.0%	0.1%	5%	5.7	19.6	–	–	–	–
Nc1nc(CC(=O)Nc2ccc(CCNC[C@H](O)c3ccccc3)cc2)cs1 [β3 adrenergic receptor agonist, mirabegron]	–	–	–	2.9	15.1	29 patients	3.1%	29.3%	274
